Data set [1] deals with PDE2 (Homo sapiens, UniProt O00408). The data set can be described thus: In vitro PDE2 enzymatic inhibition assay (Bio-cAMP substrate, AlphaScreen detection).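 As to all read-outs here: enzyme reaction run 0.5 h, then anti-cAMP acceptor and streptavidin donor beads added for 1 h in the dark before plate reading, compounds serially diluted from DMSO stock.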 Format: biochemical. The note with it: for PDE2 inhibitory activity (result in words): enzyme level. Background: Bead proximity is the source of the signal in Alpha formats.
Method: Preparation of 1*Rection Buffer: we took 1 mL 10*Rection Buffer, added 9 mL ultra-pure water to swirl and mix well, and put it on ice; preparation of PDE2 solution: 210 μL of 1*Rection Buffer were added into a centrifuge tube, then 30 μL PDE2 were added, mixed well, equal to 8-times dilution, and placed on ice; preparation of compound solution with gradient concentration: DMSO was used as the solvent to prepare 10 mM compound solution, and then diluted with 1*Rection Buffer.
We took 2 μL of the diluted compound solution of each concentration into the microplate, added 4 μL PDE2 solution, numbered them A1–A9, added 2 μL 1*Rection Buffer and 4 μL PDE2 into A10, added 2 μL compound solution and 4 μL 1*Rection Buffer to A11, added 6 μL 1*Rection Buffer to A13, and ensured the three groups are parallel to each other. […] The reaction time was 0.5 h in the microporous plate thermostatic oscillator.
Anti-Camp Alohascreen Acceptor and Streptavidin Coated Donor Bead were purchased from Perkin Elmer Company according to response volume: 1* Immunoassay Buffer 549.32 μL and 3.70 μL anti-cAMP AlohaScreen Acceptor were collected under dark conditions. We took 1.98 μL Streptavidin coated Donor Bead, mixed well, added 15 μL mixture to each well after 1 h reaction, and reacted it in the dark for 1 h. After the reaction, we tested it with multilabel microplate detector.
Where [2] appears, read: in vitro, Bio-cAMP as substrate, mean of at least three experiments.

Molecules are shown by their SMILES. “Also recorded” adds a separate entry of the source. Some results are limits rather than exact numbers.

Chain of PDE2 (O00408 whole entry): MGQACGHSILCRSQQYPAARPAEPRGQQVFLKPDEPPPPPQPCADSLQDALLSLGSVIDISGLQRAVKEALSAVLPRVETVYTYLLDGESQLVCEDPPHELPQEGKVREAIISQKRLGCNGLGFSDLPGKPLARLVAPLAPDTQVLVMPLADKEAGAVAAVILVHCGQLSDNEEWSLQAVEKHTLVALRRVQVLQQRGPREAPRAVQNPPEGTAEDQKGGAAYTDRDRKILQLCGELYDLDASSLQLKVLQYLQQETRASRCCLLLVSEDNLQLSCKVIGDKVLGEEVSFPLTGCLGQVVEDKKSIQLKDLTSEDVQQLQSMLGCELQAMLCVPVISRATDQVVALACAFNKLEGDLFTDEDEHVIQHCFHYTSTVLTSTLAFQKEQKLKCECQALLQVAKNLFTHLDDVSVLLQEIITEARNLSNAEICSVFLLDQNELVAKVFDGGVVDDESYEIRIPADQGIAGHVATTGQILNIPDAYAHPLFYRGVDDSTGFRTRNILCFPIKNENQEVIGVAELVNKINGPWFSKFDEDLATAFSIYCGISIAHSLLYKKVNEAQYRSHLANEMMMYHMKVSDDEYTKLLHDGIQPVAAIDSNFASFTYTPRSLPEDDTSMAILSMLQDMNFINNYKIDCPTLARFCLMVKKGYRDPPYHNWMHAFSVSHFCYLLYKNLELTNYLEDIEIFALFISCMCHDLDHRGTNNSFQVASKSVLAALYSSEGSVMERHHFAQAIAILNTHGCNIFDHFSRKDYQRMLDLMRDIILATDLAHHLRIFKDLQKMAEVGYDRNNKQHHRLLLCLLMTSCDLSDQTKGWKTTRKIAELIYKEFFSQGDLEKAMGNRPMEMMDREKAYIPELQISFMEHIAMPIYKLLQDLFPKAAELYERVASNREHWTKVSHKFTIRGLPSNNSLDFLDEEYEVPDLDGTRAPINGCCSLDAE

Consider `COc1ccc2c(c1)oc(=O)c1ccccc12` [Compound 1a, 3-Methoxy-6H-benzo[c]chromen-6-one], for which the IC50 (commonly the concentration needed to halve the response being measured) in data set [1] (setting [2]) stood at 28.8 ± 7.8 µM.
`CCOc1ccc2c(c1)oc(=O)c1ccccc12` [Compound 1b, Ethoxy-6H-benzo[c]chromen-6-one]: the melting point (commonly the temperature of the solid-liquid transition) was in the range of 115.2 to 117.7 °C. In data set [1] (setting [2]), the concentration for half-maximal inhibition (IC50) stood at 25.4 ± 5.13 µM.
In the same order, the values of `CC(C)Oc1ccc2c(c1)oc(=O)c1ccccc12` [Compound 1c, 3-Isopropoxy-6H-benzo[c]chromen-6-one] are 58.7 to 59.1 °C and 25.8 ± 5.45 µM.
As to `CCCOc1ccc2c(c1)oc(=O)c1ccccc12` [Compound 1d, 3-Propoxy-6H-benzo[c]chromen-6-one], the 50% inhibitory concentration (IC50) in data set [1] (setting [2]) is more than 50 µM.
Compound `CCC(C)Oc1ccc2c(c1)oc(=O)c1ccccc12` (stereo not shown) [Compound 1e, 3-(Sec-butoxy)-6H-benzo[c]chromen-6-one] returned a melting point of 73.2 to 75.8 °C. Further, half-maximal inhibition in data set [1] (setting [2]) (IC50) required 37.7 ± 4.9 µM.
In the same order, the values of `CCCCCOc1ccc2c(c1)oc(=O)c1ccccc12` [Compound 1g, 3-(pentyloxy)-6H-benzo[c]chromen-6-one] are 69.4 to 71.8 °C and more than 50 µM.
Take `CCOC(=O)COc1ccc2c(c1)oc(=O)c1ccccc12` [Compound 1h, ethyl 2-((6-oxo-6H-benzo[c]chromen-3-yl)oxy)acetate]: the melting point lay in the range of 124.7 to 125.8 °C. In data set [1], the “PDE2 inhibitory activity (result in words)” value (“PDE2 inhibitory activity” for short) was “good PDE2 inhibitory activity”. Further, half-maximal inhibition in data set [1] (setting [2]) (IC50) required 18.7 ± 2.72 µM.
On to `O=c1oc2cc(OCC3CCOCC3)ccc2c2ccccc12` [Compound 1i, 3-((tetrahydro-2H-pyran-4-yl)methoxy)-6H-benzo[c]chromen-6-one], for which the melting point was 133 to 134.8 °C. Further, in data set [1], the “PDE2 inhibitory activity” value is “good PDE2 inhibitory activity”. Half-maximal inhibition in data set [1] (setting [2]) (IC50) required 17.9 ± 1.87 µM.
For `O=c1oc2cc(OCCn3cccn3)ccc2c2ccccc12` [Compound 1k, 3-(2-(1H-pyrazol-1-yl)ethoxy)-6H-benzo[c]chromen-6-one], the melting point is 164.3 to 166.6 °C. Also, the 50% inhibitory concentration (IC50) in data set [1] (setting [2]) is more than 50 µM.
`O=c1oc2cc(Oc3ncccn3)ccc2c2ccccc12` [Compound 1l, 3-(Pyrimidin-2-yloxy)-6H-benzo[c]chromen-6-one] returned a melting point of 174 to 176.6 °C. Moreover, in data set [1], the “PDE2 inhibitory activity” value is given as “good PDE2 inhibitory activity”. This compound came in with a half-inhibitory concentration (IC50) in data set [1] (setting [2]) of 19.3 ± 2.38 µM.
`O=c1oc2cc(OCCO)ccc2c2ccccc12` [Compound 1m, 3-(2-Hydroxyethoxy)-6H-benzo[c]chromen-6-one] gave a melting point of 125.7 to 126.4 °C. The compound further had a 50% inhibitory concentration (IC50) in data set [1] (setting [2]) of more than 50 µM.
The corresponding values for `O=c1oc2cc(OCC3CCCO3)ccc2c2ccccc12` (stereo not shown) [Compound 1n, 3-((Tetrahydrofuran-2-yl)methoxy)-6H-benzo[c]chromen-6-one] are 82.8 to 84.1 °C and 27.5 ± 1.49 µM.
For the compound `O=c1oc2cc(OCC3OCCO3)ccc2c2ccccc12` [Compound 1o, 3-((1,3-Dioxolan-2-yl)methoxy)-6H-benzo[c]chromen-6-one], the melting point is 135.6 to 137.8 °C. This compound also displayed a concentration for half-maximal inhibition (IC50) in data set [1] (setting [2]) of more than 50 µM.
The corresponding values for `COc1cc(COc2ccc3c(c2)oc(=O)c2ccccc23)cc(OC)c1` [Compound 1p, 3-((3,5-Dimethoxybenzyl)oxy)-6H-benzo[c]chromen-6-one] are 133.8 to 135 °C and more than 50 µM.
In the same order, the values of `Cc1cc(COc2ccc3c(c2)oc(=O)c2ccccc23)n(C)n1` [Compound 1q, 3-((1,3-Dimethyl-1H-pyrazol-5-yl)methoxy)-6H-benzo[c]chromen-6-one] are 165.1 to 167.6 °C and more than 50 µM.
For `O=c1oc2cc(OCc3cccnc3)ccc2c2ccccc12` [Compound 1r, 3-(Pyridin-3-ylmethoxy)-6H-benzo[c]chromen-6-one], the IC50 in data set [1] (setting [2]) amounted to 27.6 ± 2.14 µM.
In turn, `O=c1oc2cc(OCC3CCCC3)ccc2c2ccccc12` [Compound 1s, 3-(Cyclopentylmethoxy)-6H-benzo[c]chromen-6-one] showed a melting point of 90.6 to 91.2 °C. In addition, in data set [1], the “PDE2 inhibitory activity” value is “good PDE2 inhibitory activity”. 8.14 ± 0.54 µM corresponded to half-maximal inhibition in data set [1] (setting [2]) (IC50).
In the case of `O=c1oc2cc(OCc3ccc(CO)cc3)ccc2c2ccccc12` [Compound 1t, 3-((4-[Hydroxymethyl]benzyl)oxy)-6H-benzo[c]chromen-6-one], the melting point fell in the range of 147 to 149.2 °C. In data set [1] (setting [2]), this compound came in with an IC50 of more than 50 µM.
The corresponding values for `O=c1oc2cc(OCCN3CCOCC3)ccc2c2ccccc12` [Compound 1u, 3-(2-Morpholinoethoxy)-6H-benzo[c]chromen-6-one] are 100.8 to 102.8 °C and more than 50 µM.
Consider `COc1ccc2c(c1)oc(=O)c1cc(OC)ccc12` [Compound 2a, 3,8-Dimethoxy-6H-benzo[c]chromen-6-one], for which the IC50 in data set [1] (setting [2]) was more than 50 µM.
In turn, `CCOc1ccc2c(c1)oc(=O)c1cc(OC)ccc12` [Compound 2b, 3-Ethoxy-8-methoxy-6H-benzo[c]chromen-6-one] returned a melting point of 141.1 to 143.8 °C. Besides, in data set [1] (setting [2]), the IC50 is more than 50 µM.
`CCCOc1ccc2c(c1)oc(=O)c1cc(OC)ccc12` [Compound 2c, 8-Methoxy-3-propoxy-6H-benzo[c]chromen-6-one]: the melting point lay in the range of 109.3 to 111.6 °C. In data set [1] (setting [2]), this compound gave an IC50 of more than 50 µM.
The corresponding values for `CCC(C)Oc1ccc2c(c1)oc(=O)c1cc(OC)ccc12` (stereo not shown) [Compound 2d, 3-(Sec-butoxy)-8-methoxy-6H-benzo[c]chromen-6-one] are 64.5 to 66.7 °C and more than 50 µM.
Take `CCCCOc1ccc2c(c1)oc(=O)c1cc(OC)ccc12` [Compound 2e, 3-Butoxy-8-methoxy-6H-benzo[c]chromen-6-one]: the melting point lay in the range of 102.5 to 104.4 °C. The “PDE2 inhibitory activity” value in data set [1] is recorded as “good PDE2 inhibitory activity”. Further, the midpoint of inhibition in data set [1] (setting [2]), the IC50, lay at 17.8 ± 4.07 µM.
Consider `CCCCCOc1ccc2c(c1)oc(=O)c1cc(OC)ccc12` [Compound 2f, 8-Methoxy-3-(pentyloxy)-6H-benzo[c]chromen-6-one], for which the melting point was 73.1 to 75.5 °C. The compound further came in with an IC50 in data set [1] (setting [2]) of more than 50 µM.
The corresponding values for `COc1ccc2c(c1)c(=O)oc1cc(OC(C)C)ccc12` [Compound 2g, 3-Isopropoxy-8-methoxy-6H-benzo[c]chromen-6-one] are 88.3 to 90.7 °C and 30.3 ± 7.38 µM.
In the same order, the values of `COc1ccc2c(c1)c(=O)oc1cc(OCCO)ccc12` [Compound 2h, 3-(2-Hydroxyethoxy)-8-methoxy-6H-benzo[c]chromen-6-one] are 166.8 to 168 °C and more than 50 µM.
`COc1ccc2c(c1)c(=O)oc1cc(OCCSC)ccc12` [Compound 2i, 8-Methoxy-3-(2-(methylthio)ethoxy)-6H-benzo[c]chromen-6-one] showed a melting point of 110.1 to 111.8 °C. The “PDE2 inhibitory activity” value in data set [1] was “best PDE2 inhibitory activity; also recorded: good PDE2 inhibitory activity”. In addition, the IC50 in data set [1] (setting [2]) came to 14.9 ± 1.78 µM.
As for `CCOC(=O)COc1ccc2c(c1)oc(=O)c1cc(OC)ccc12` [Compound 2j, Ethyl 2-((8-methoxy-6-oxo-6H-benzo[c]chromen-3-yl)oxy)acetate], the IC50 in data set [1] (setting [2]) was more than 50 µM.
Still for that read-out and setting: in the case of `COc1ccc2c(c1)c(=O)oc1cc(OCC3CCCC3)ccc12` [Compound 2k, 3-(Cyclopentylmethoxy)-8-methoxy-6H-benzo[c]chromen-6-one] it was more than 50 µM.
`COc1ccc2c(c1)c(=O)oc1cc(OCC3CCCO3)ccc12` (stereo not shown) [Compound 2l, 8-Methoxy-3-((tetrahydrofuran-2-yl)methoxy)-6H-benzo[c]chromen-6-one]: the melting point lay within 113.1 to 115.5 °C. Besides, the concentration for half-maximal inhibition (IC50) in data set [1] (setting [2]) is more than 50 µM.
Consider `COc1ccc2c(c1)c(=O)oc1cc(OCC3OCCO3)ccc12` [Compound 2m, 3-((1,3-Dioxolan-2-yl)methoxy)-8-methoxy-6H-benzo[c]chromen-6-one], for which the melting point fell in the range of 147.9 to 150.1 °C. This compound returned an IC50 in data set [1] (setting [2]) of more than 50 µM.
The corresponding values for `COc1ccc2c(c1)c(=O)oc1cc(OCC3CCCCC3)ccc12` [Compound 2n, 3-(Cyclohexylmethoxy)-8-methoxy-6H-benzo[c]chromen-6-one] are 139.8 to 140.1 °C and more than 50 µM.
In the same order, the values of `COc1ccc2c(c1)c(=O)oc1cc(OCCC3OCCO3)ccc12` [Compound 2o, 3-(2-(1,3-Dioxolan-2-yl)ethoxy)-8-methoxy-6H-benzo[c]chromen-6-one] are 151.6 to 153.2 °C and more than 50 µM.
The corresponding values for `COc1ccc2c(c1)c(=O)oc1cc(OCC3CCOCC3)ccc12` [Compound 2p, 8-Methoxy-3-((tetrahydro-2H-pyran-4-yl)methoxy)-6H-benzo[c]chromen-6-one] are 168.1 to 168.5 °C and 25.2 ± 6.91 µM.
`COc1ccc2c(c1)c(=O)oc1cc(OCc3ccccc3)ccc12` [Compound 2q, 3-(Benzyloxy)-8-methoxy-6H-benzo[c]chromen-6-one] returned a melting point of 141.7 to 142.5 °C. The compound also registered an IC50 in data set [1] (setting [2]) of 23.3 ± 4.28 µM.
The corresponding values for `COc1ccc2c(c1)c(=O)oc1cc(OCc3ccc(CO)cc3)ccc12` [Compound 2r, 3-((4-[Hydroxymethyl]benzyl)oxy)-8-methoxy-6H-benzo[c]chromen-6-one] are 192.4 to 194.6 °C and more than 50 µM.
On to `COc1cc(COc2ccc3c(c2)oc(=O)c2cc(OC)ccc23)cc(OC)c1` [Compound 2s, 3-((3,5-Dimethoxybenzyl)oxy)-8-methoxy-6H-benzo[c]chromen-6-one], for which the melting point lay in the range of 153.6 to 155.3 °C. The compound further had an IC50 in data set [1] (setting [2]) of more than 50 µM.
Compound `COc1ccc2c(c1)c(=O)oc1cc(OCc3ccccc3F)ccc12` [Compound 2t, 3-((2-Fluorobenzyl)oxy)-8-methoxy-6H-benzo[c]chromen-6-one] registered a melting point of 203.6 to 204.9 °C. The “PDE2 IC50” value in data set [1] (setting [2]) is given as “Insoluble”.
In turn, `COc1ccc2c(c1)c(=O)oc1cc(Oc3ncccn3)ccc12` [Compound 2v, 8-Methoxy-3-(pyrimidin-2-yloxy)-6H-benzo[c]chromen-6-one] showed a melting point of 212.3 to 214 °C.

(Values after article PMC8199001, “Design, Synthesis, and Biological Evaluation of Novel 6H-Benzo[c]chromen-6-one Derivatives as Potential Phosphodiesterase II Inhibitors” (International Journal of Molecular Sciences, 2021).)
